Reference: patent US10878939B2, “Methods and compositions for personalized pain management” (Children's Hospital Medical Center, priority 2014, dated 2020)

How the values were obtained:
[1] = test system: children undergoing tonsillectomy; experiment: Analgesic effectiveness outcomes by sex and morphine dose (Example 6)
[2] = test system: children undergoing tonsillectomy; experiment: Respiratory depression and prolonged PACU stay due to RD by ABCB1 genotype (Example 7)
From the text: Children 6-15 years undergoing elective outpatient tonsillectomy were eligible for the study and recruited on the day of surgery. […] Clinical criteria for OSA designation included sleep disordered breathing with a history of snoring and either sleep pauses lasting more than 10 seconds or daytime drowsiness. Children were excluded from the study if they or their parents were non-English speaking.
All participants received standard perioperative care. Anesthesia was induced using sevoflurane followed by a propofol (2 mg/kg) bolus to facilitate endotracheal intubation. Anesthesia was maintained with sevoflurane without the use of neuromuscular blockade. […] All children receive prophylactic ondansetron (0.1 mg/kg) and dexamethasone (0.1 mg/kg) intraoperatively.
Duration of PACU stay (time to achieve PACU discharge readiness) was defined as the duration in PACU before achieving the following discharge criteria. […] This is discharge readiness time is different from actual PACU discharge time as delays due to social reasons (e.g. waiting for car rides) were not included.
Metrics for analgesic effectiveness and opioid-related adverse effects were recorded for each participant. For the metrics for opioid-related adverse effects, this study focused on two clinically and economically important outcomes: clinical RD and prolonged PACU stay (>90 minutes) secondary to respiratory depression assessed consistently by the research coordinator.
Blood was collected from each participant in the operating room under anesthesia and the DNA was isolated the same day and stored at −20 degree Celsius. Batched genotyping was performed after clinical data was entered on all study participants. The TaqMan allelic discrimination system assays and Genotyper Softerware Version 1.0.1 (Life Technologies, Applied Biosystems, Forest City, Calif.) were used to analyse and report the following ABCB1 polymorphisms: rs1045642, rs2032582, rs1128503, rs2229109, and rs9282564.
Prior to analysis, data qualities were examined. For the ABCB1 variants, allelic and genotype frequencies were assessed in white and black patients separately, and Hardy Weinberg equilibrium (HWE) was tested. To analyze binary outcomes (RD, prolonged PACU secondary to RD and analgesic intervention need), logistic regression was performed. […] Thus, maximum FLACC scores were analyzed using a zero-inflated negative binomial model to appropriately capture the distribution of this variable. […] To select the best fitting model, log likelihood, Akaike and Bayesian Information criterion were compared, and residuals were examined. […] To assess the single SNP association with the outcomes, additive models were used, in which the genotypes were recoded and tested as continuous variables. For the four bi-allelic SNPs, genotypes were recoded to 0, 1 and 2 according to the number of minor alleles. For rs2032582, GG genotype was recoded as 0; GA and GT genotypes were combined and recoded as 1, and TT and TA genotypes as 2. Statistical modeling was conducted with white and black patients separately and combined. When races were combined, the effects of race and race*SNP interaction were tested.

[3] = F, intra-op morphine >0.2 mg/kg
[4] = F, intra-op morphine >0.1-0.2 mg/kg
[5] = F, intra-op morphine ≤0.1 mg/kg
[6] = M, intra-op morphine >0.2 mg/kg
[7] = M, intra-op morphine >0.1-0.2 mg/kg
[8] = M, intra-op morphine ≤0.1 mg/kg

For `CN1CC[C@]23c4c5ccc(O)c4O[C@H]2[C@@H](O)C=C[C@H]3[C@H]1C5` [morphine], the “Analgesic intervention need in PACU, number of cases” value ([1]; F, All) was 67, the “Analgesic intervention need in PACU, proportion” value ([1]; F, All) was “(31%)” and the “Maximum FLACC pain score, median” value ([1]; F, All) was 2. The “Maximum NRS pain score, median” value ([1]; F, All) was 6, the “Number of analgesic interventions, median” value ([1]; F, All) was 1 and the “Post-operative morphine, mean ± SD” value ([1]; F, All) was 0.09 ± 0.05 mg/kg. The “Prolonged PACU stay due to pain, number of cases” value ([1]; F, All) was 37, the “Prolonged PACU stay due to pain, proportion” value ([1]; F, All) was “(17%)” and the “Analgesic intervention need in PACU, number of cases” value ([1]; F, OSA No) was 35. For the same molecule, the “Analgesic intervention need in PACU, proportion” value ([1]; F, OSA No) was “(28%)”, the “Maximum FLACC pain score, median” value ([1]; F, OSA No) was 2 and the “Maximum NRS pain score, median” value ([1]; F, OSA No) was 6. For the same molecule, the “Number of analgesic interventions, median” value ([1]; F, OSA No) was 1, the “Post-operative morphine, mean ± SD” value ([1]; F, OSA No) was 0.08 ± 0.04 mg/kg and the “Prolonged PACU stay due to pain, number of cases” value ([1]; F, OSA No) was 21. For the same molecule, the “Prolonged PACU stay due to pain, proportion” value ([1]; F, OSA No) was “(17%)”, the “Analgesic intervention need in PACU, number of cases” value ([1]; F, OSA Yes) was 32 and the “Analgesic intervention need in PACU, proportion” value ([1]; F, OSA Yes) was “(34%)”. The “Maximum FLACC pain score, median” value ([1]; F, OSA Yes) was 2, the “Maximum NRS pain score, median” value ([1]; F, OSA Yes) was 5 and the “Number of analgesic interventions, median” value ([1]; F, OSA Yes) was 1. For the same molecule, the “Post-operative morphine, mean ± SD” value ([1]; F, OSA Yes) was 0.09 ± 0.06 mg/kg, the “Prolonged PACU stay due to pain, number of cases” value ([1]; F, OSA Yes) was 16 and the “Prolonged PACU stay due to pain, proportion” value ([1]; F, OSA Yes) was “(17%)”. The “Analgesic intervention need in PACU, number of cases (%)” value (from here on “Analgesic intervention need … (%)”) [1, 3] was 22 (51), the “Maximum FLACC pain score, median (IQR)” value [1, 3] was 1 (0-5) and the “Maximum NRS pain score, median (IQR)” value [1, 3] was 6 (3-9). For the same molecule, the “Number of analgesic interventions, median (IQR)” value (“Number … (IQR)” below) [1, 3] was 1 (0-1), the “Post-operative morphine, mean ± SD” value [1, 3] was 0.10 ± 0.05 mg/Kf and the “Prolonged PACU stay due to pain, number of cases (%)” value (from here on “Prolonged PACU stay due … (%)”) [1, 3] was 12 (28). For the same molecule, the “Analgesic intervention need … (%)” value [1, 4] was 40 (61), the “Maximum FLACC pain score, median (IQR)” value [1, 4] was 2 (0-5) and the “Maximum NRS pain score, median (IQR)” value [1, 4] was 5 (2-8). For the same molecule, the “Number … (IQR)” value [1, 4] was 1 (0-1), the “Post-operative morphine, mean ± SD” value [1, 4] was 0.09 ± 0.05 mg/Kf and the “Prolonged PACU stay due … (%)” value [1, 4] was 22 (33). For the same molecule, the “Analgesic intervention need … (%)” value [1, 5] was 5 (100), the “Maximum FLACC pain score, median (IQR)” value [1, 5] was 3 (3-4) and the “Maximum NRS pain score, median (IQR)” value [1, 5] was 8 (6-10). The “Number … (IQR)” value [1, 5] was 1 (1-2), the “Post-operative morphine, mean ± SD” value [1, 5] was 0.07 ± 0.03 mg/Kf and the “Prolonged PACU stay due … (%)” value [1, 5] was 3 (60). For the same molecule, the “Analgesic intervention need in PACU, number of cases” value ([1]; M, All) was 61, the “Analgesic intervention need in PACU, proportion” value ([1]; M, All) was “(28%)” and the “Maximum FLACC pain score, median” value ([1]; M, All) was 2. For the same molecule, the “Maximum NRS pain score, median” value ([1]; M, All) was 5, the “Number of analgesic interventions, median” value ([1]; M, All) was 1 and the “Post-operative morphine, mean ± SD” value ([1]; M, All) was 0.09 ± 0.05 mg/kg. For the same molecule, the “Prolonged PACU stay due to pain, number of cases” value ([1]; M, All) was 36, the “Prolonged PACU stay due to pain, proportion” value ([1]; M, All) was “(16%)” and the “Analgesic intervention need in PACU, number of cases” value ([1]; M, OSA No) was 35. For the same molecule, the “Analgesic intervention need in PACU, proportion” value ([1]; M, OSA No) was “(28%)”, the “Maximum FLACC pain score, median” value ([1]; M, OSA No) was 2 and the “Maximum NRS pain score, median” value ([1]; M, OSA No) was 6. The “Number of analgesic interventions, median” value ([1]; M, OSA No) was 1, the “Post-operative morphine, mean ± SD” value ([1]; M, OSA No) was 0.09 ± 0.05 mg/kg and the “Prolonged PACU stay due to pain, number of cases” value ([1]; M, OSA No) was 24. The “Prolonged PACU stay due to pain, proportion” value ([1]; M, OSA No) was “(19%)”, the “Analgesic intervention need in PACU, number of cases” value ([1]; M, OSA Yes) was 26 and the “Analgesic intervention need in PACU, proportion” value ([1]; M, OSA Yes) was “(27%)”. The “Maximum FLACC pain score, median” value ([1]; M, OSA Yes) was 4, the “Maximum NRS pain score, median” value ([1]; M, OSA Yes) was 5 and the “Number of analgesic interventions, median” value ([1]; M, OSA Yes) was 1. The “Post-operative morphine, mean ± SD” value ([1]; M, OSA Yes) was 0.09 ± 0.05 mg/kg, the “Prolonged PACU stay due to pain, number of cases” value ([1]; M, OSA Yes) was 12 and the “Prolonged PACU stay due to pain, proportion” value ([1]; M, OSA Yes) was “(13%)”. The “Analgesic intervention need … (%)” value [1, 6] was 20 (54), the “Maximum FLACC pain score, median (IQR)” value [1, 6] was 2 (0-5) and the “Maximum NRS pain score, median (IQR)” value [1, 6] was 6 (4-7). The “Number … (IQR)” value [1, 6] was 1 (0-1), the “Post-operative morphine, mean ± SD” value [1, 6] was 0.09 ± 0.05 mg/Kf and the “Prolonged PACU stay due … (%)” value [1, 6] was 12 (32). The “Analgesic intervention need … (%)” value [1, 7] was 36 (58), the “Maximum FLACC pain score, median (IQR)” value [1, 7] was 3 (1-7) and the “Maximum NRS pain score, median (IQR)” value [1, 7] was 5 (2-8). For the same molecule, the “Number … (IQR)” value [1, 7] was 1 (0-1), the “Post-operative morphine, mean ± SD” value [1, 7] was 0.10 ± 0.05 mg/Kf and the “Prolonged PACU stay due … (%)” value [1, 7] was 22 (35). The “Analgesic intervention need … (%)” value [1, 8] was 5 (83), the “Maximum FLACC pain score, median (IQR)” value [1, 8] was 3 (1-5) and the “Maximum NRS pain score, median (IQR)” value [1, 8] was 6 (5-9). The “Number … (IQR)” value [1, 8] was 1 (1-2), the “Post-operative morphine, mean ± SD” value [1, 8] was 0.07 ± 0.04 mg/Kf and the “Prolonged PACU stay due … (%)” value [1, 8] was 2 (33). The “sex-specific morphine effects on analgesic outcomes” value ([1]; univariate or multivariate modeling) was “no evidence of sex-specific morphine effects”, the “patients with RD” value ([2]; 263 patients) was 19% and the “patients with prolonged PACU stay due to RD” value ([2]; 263 patients) was 11%. The “Prolonged PACU due to RD %” value ([2]; Blacks, ABCB1 rs1045642 CC, N=27) was 7%, the “Prolonged PACU due to RD %” value ([2]; Blacks, ABCB1 rs1045642 TC, N=14) was 21% and the “Prolonged PACU due to RD %” value ([2]; Blacks, ABCB1 rs1045642 TT, N=3) was 33%. For the same molecule, the “Prolonged PACU due to RD %” value ([2]; Blacks, ABCB1 rs1128503 CC, N=24) was 8%, the “Prolonged PACU due to RD %” value ([2]; Blacks, ABCB1 rs1128503 TC, N=18) was 17% and the “Prolonged PACU due to RD %” value ([2]; Blacks, ABCB1 rs1128503 TT, N=2) was 50%. For the same molecule, the “Prolonged PACU due to RD %” value ([2]; Blacks, ABCB1 rs2032582 GA, N=1) was 0%, the “Prolonged PACU due to RD %” value ([2]; Blacks, ABCB1 rs2032582 GG, N=35) was 11% and the “Prolonged PACU due to RD %” value ([2]; Blacks, ABCB1 rs2032582 GT, N=8) was 25%. For the same molecule, the “Prolonged PACU due to RD %” value ([2]; Blacks, ABCB1 rs2229109 CA, N=1) was 0%, the “Prolonged PACU due to RD %” value ([2]; Blacks, ABCB1 rs2229109 CC, N=43) was 14% and the “Prolonged PACU due to RD %” value ([2]; Blacks, ABCB1 rs9282564 AA, N=41) was 10%. The “Prolonged PACU due to RD %” value ([2]; Blacks, ABCB1 rs9282564 GA, N=3) was 67%, the “Prolonged PACU due to RD %” value ([2]; Whites, ABCB1 rs1045642 CC, N=49) was 4% and the “Prolonged PACU due to RD %” value ([2]; Whites, ABCB1 rs1045642 TC, N=100) was 15%. For the same molecule, the “Prolonged PACU due to RD %” value ([2]; Whites, ABCB1 rs1045642 TT, N=70) was 10%, the “Prolonged PACU due to RD %” value ([2]; Whites, ABCB1 rs1128503 CC, N=70) was 9% and the “Prolonged PACU due to RD %” value ([2]; Whites, ABCB1 rs1128503 TC, N=102) was 13%. The “Prolonged PACU due to RD %” value ([2]; Whites, ABCB1 rs1128503 TT, N=47) was 11%, the “Prolonged PACU due to RD %” value ([2]; Whites, ABCB1 rs2032582 GA, N=7) was 0% and the “Prolonged PACU due to RD %” value ([2]; Whites, ABCB1 rs2032582 GG, N=65) was 9%. The “Prolonged PACU due to RD %” value ([2]; Whites, ABCB1 rs2032582 GT, N=100) was 14%, the “Prolonged PACU due to RD %” value ([2]; Whites, ABCB1 rs2032582 TA, N=1) was 0% and the “Prolonged PACU due to RD %” value ([2]; Whites, ABCB1 rs2032582 TT, N=46) was 9%. For the same molecule, the “Prolonged PACU due to RD %” value ([2]; Whites, ABCB1 rs2229109 CA, N=14) was 14%, the “Prolonged PACU due to RD %” value ([2]; Whites, ABCB1 rs2229109 CC, N=205) was 11% and the “Prolonged PACU due to RD %” value ([2]; Whites, ABCB1 rs9282564 AA, N=171) was 8%. For the same molecule, the “Prolonged PACU due to RD %” value ([2]; Whites, ABCB1 rs9282564 GA, N=46) was 20% and the “Prolonged PACU due to RD %” value ([2]; Whites, ABCB1 rs9282564 GG, N=2) was 100%.
